According to patent publication US20260274814A1, “THIENYL COMPOUNDS FOR THE TREATMENT OF A CENTRAL NERVOUS SYSTEM DISEASE OR DISORDER” (Coreterra Therapeutics, Inc., priority 2023, published 2026):
Structures can show the parent of a compound that is named as a salt.

System: mice
Test: Neuropharmacological Assay (SmartCube): automated behavioral signature of compound-treated mice compared with a database of reference drug classes
Assay type: in vivo
Conditions: for minimal effective dose: Mus musculus, ip, read-out: MED; for minimal effective dose / MED: minimal effective dose: dose having 45% or more total activity in SmartCube, i.p., if only one dose tested, that dose is shown; for AD / AG / AN / AP / AX / CE / HL / MS / PS / SH / UK: SmartCube class probability, 3.0 mg/kg i.p., 15 min before test
Procedure, shortened: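 Mice dosed i.p. 15 min before SmartCube testing, with compound in N-methyl-2-pyrrolidone/polyethylene glycol/propylene glycol. Video-captured behaviour is compared with a reference-drug signature database to give per-class probabilities, reported at 3.0 mg/kg. MED, from doses usually 0.3–10 mg/kg, is the lowest dose giving ≥45% total activity.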

SMILES	minimal effective dose [mg/kg]	AD	AG	AN	AP	AX	CE	HL	MS	PS	SH	UK (hydrochloride, 3 mg/kg)	MED [mpk]	UK	AX (hydrochloride, 3 mg/kg)	MED (hydrochloride) [mpk]	AD (hydrochloride, 3 mg/kg)	HL (hydrochloride, 3 mg/kg)	AP (hydrochloride, 3 mg/kg)	PS (hydrochloride, 3 mg/kg)
c1scc2c1CCC(NC1CCC1)C2 (single isomer, unassigned) [Compound 160, N-cyclobutyl-4,5,6,7-tetrahydro-2-benzothiophen-5-amine hydrochloride]	> 3	ND (^ <4%)	ND (^ <4%)	ND (^ <4%)	ND (^ <4%)	ND (^ <4%)	ND (^ <4%)	ND (^ <4%)	ND (^ <4%)	ND (^ <4%)	ND (^ <4%)	+ (≥4%)	–	–	–	–	–	–	–	–
c1scc2c1CCC(NC1CCC1)C2 (single isomer, unassigned) [Compound 161, N-cyclobutyl-4,5,6,7-tetrahydro-2-benzothiophen-5-amine hydrochloride]	–	ND (^ <4%)	ND (^ <4%)	ND (^ <4%)	ND (^ <4%)	ND (^ <4%)	ND (^ <4%)	ND (^ <4%)	ND (^ <4%)	ND (^ <4%)	ND (^ <4%)	ND (^ <4%)	>3	–	–	–	–	–	–	–
Cc1scc2c1CC(N)CC2 (single isomer, unassigned) [Compound 162, 3-methyl-4,5,6,7-tetrahydro-2-benzothiophen-5-amine hydrochloride]	3	ND (^ <4%)	ND (^ <4%)	ND (^ <4%)	ND (^ <4%)	–	ND (^ <4%)	ND (^ <4%)	ND (^ <4%)	ND (^ <4%)	ND (^ <4%)	–	–	+ (≥4%)	+++ (≥49%)	–	–	–	–	–
Cc1scc2c1CC(N)CC2 (single isomer, unassigned) [Compound 163, 3-methyl-4,5,6,7-tetrahydro-2-benzothiophen-5-amine hydrochloride]	–	ND (^ <4%)	ND (^ <4%)	ND (^ <4%)	ND (^ <4%)	–	ND (^ <4%)	ND (^ <4%)	ND (^ <4%)	ND (^ <4%)	ND (^ <4%)	–	–	+ (≥4%)	ND (^ <4%)	>3	–	–	–	–
Cc1scc2c1CCC(N)C2 (single isomer, unassigned) [Compound 164, 1-methyl-4,5,6,7-tetrahydro-2-benzothiophen-5-amine hydrochloride]	3	–	ND (^ <4%)	ND (^ <4%)	ND (^ <4%)	ND (^ <4%)	ND (^ <4%)	–	ND (^ <4%)	ND (^ <4%)	ND (^ <4%)	–	–	ND (^ <4%)	–	–	+++ (≥49%)	ND (^ <4%)	–	–
Cc1scc2c1CCC(N)C2 (single isomer, unassigned) [Compound 165, 1-methyl-4,5,6,7-tetrahydro-2-benzothiophen-5-amine hydrochloride]	–	–	ND (^ <4%)	ND (^ <4%)	ND (^ <4%)	ND (^ <4%)	ND (^ <4%)	–	ND (^ <4%)	ND (^ <4%)	ND (^ <4%)	–	3	ND (^ <4%)	–	–	ND (^ <4%)	++++ (≥74%)	–	–
NC1CCc2cscc2C1 (single isomer, unassigned) [Compound 166, 4,5,6,7-tetrahydro-2-benzothiophen-5-amine hydrochloride]	1	–	ND (^ <4%)	ND (^ <4%)	–	+++ (≥49%)	ND (^ <4%)	ND (^ <4%)	ND (^ <4%)	–	ND (^ <4%)	–	–	ND (^ <4%)	–	–	+ (≥4%)	–	++ (≥24%)	ND (^ <4%)
NC1CCc2cscc2C1 (single isomer, unassigned) [Compound 167, 4,5,6,7-tetrahydro-2-benzothiophen-5-amine hydrochloride]	–	–	ND (^ <4%)	ND (^ <4%)	–	+++ (≥49%)	ND (^ <4%)	ND (^ <4%)	ND (^ <4%)	–	ND (^ <4%)	–	1	ND (^ <4%)	–	–	++ (≥24%)	–	ND (^ <4%)	+ (≥4%)
CNC1CCCc2cscc2C1 (single isomer, unassigned) [Compound 169, N-methyl-5,6,7,8-tetrahydro-4H-cyclohepta[c]thiophen-5-amine hydrochloride]	–	ND (^ <4%)	ND (^ <4%)	ND (^ <4%)	–	–	ND (^ <4%)	ND (^ <4%)	ND (^ <4%)	ND (^ <4%)	ND (^ <4%)	++ (≥24%)	–	–	ND (^ <4%)	3	–	–	ND (^ <4%)	–
CNC1CCCc2cscc2C1 (single isomer, unassigned) [Compound 170, N-methyl-5,6,7,8-tetrahydro-4H-cyclohepta[c]thiophen-5-amine hydrochloride]	–	ND (^ <4%)	ND (^ <4%)	ND (^ <4%)	–	–	ND (^ <4%)	ND (^ <4%)	ND (^ <4%)	ND (^ <4%)	ND (^ <4%)	ND (^ <4%)	–	–	++ (≥24%)	1	–	–	+++ (≥49%)	–
CCNC1CCc2cscc2C1 (single isomer, unassigned) [Compound 171, N-ethyl-4,5,6,7-tetrahydro-2-benzothiophen-5-amine hydrochloride]	–	ND (^ <4%)	ND (^ <4%)	ND (^ <4%)	–	–	ND (^ <4%)	ND (^ <4%)	ND (^ <4%)	ND (^ <4%)	ND (^ <4%)	–	–	ND (^ <4%)	ND (^ <4%)	3	–	–	++++ (≥74%)	–
CCNC1CCc2cscc2C1 (single isomer, unassigned) [Compound 172, N-ethyl-4,5,6,7-tetrahydro-2-benzothiophen-5-amine hydrochloride]	–	ND (^ <4%)	ND (^ <4%)	ND (^ <4%)	–	–	ND (^ <4%)	ND (^ <4%)	ND (^ <4%)	ND (^ <4%)	ND (^ <4%)	–	–	ND (^ <4%)	++++ (≥74%)	1	–	–	ND (^ <4%)	–
CNC1CCc2scc(C#N)c2C1 (single isomer, unassigned) [Compound 174, 5-(methylamino)-4,5,6,7-tetrahydrobenzothiophene-3-carbonitrile hydrochloride]	–	ND (^ <4%)	ND (^ <4%)	ND (^ <4%)	ND (^ <4%)	–	ND (^ <4%)	ND (^ <4%)	ND (^ <4%)	ND (^ <4%)	+ (≥4%)	–	–	ND (^ <4%)	ND (^ <4%)	1	–	–	–	–
CNC1CCc2scc(C#N)c2C1 (single isomer, unassigned) [Compound 175, 5-(methylamino)-4,5,6,7-tetrahydrobenzothiophene-3-carbonitrile hydrochloride]	–	ND (^ <4%)	ND (^ <4%)	ND (^ <4%)	ND (^ <4%)	–	ND (^ <4%)	ND (^ <4%)	ND (^ <4%)	ND (^ <4%)	+ (≥4%)	–	–	ND (^ <4%)	+++ (≥49%)	3	–	–	–	–
N#Cc1csc2c1CC(N)CC2 (single isomer, unassigned) [Compound 176, 5-amino-4,5,6,7-tetrahydrobenzo[b]thiophene-3-carbonitrile hydrochloride]	> 3	ND (^ <4%)	ND (^ <4%)	ND (^ <4%)	ND (^ <4%)	ND (^ <4%)	ND (^ <4%)	ND (^ <4%)	ND (^ <4%)	ND (^ <4%)	ND (^ <4%)	ND (^ <4%)	–	–	–	–	–	–	–	–
N#Cc1csc2c1CC(N)CC2 (single isomer, unassigned) [Compound 177, 5-amino-4,5,6,7-tetrahydrobenzo[b]thiophene-3-carbonitrile hydrochloride]	–	ND (^ <4%)	ND (^ <4%)	ND (^ <4%)	ND (^ <4%)	ND (^ <4%)	ND (^ <4%)	ND (^ <4%)	ND (^ <4%)	ND (^ <4%)	ND (^ <4%)	++++ (≥74%)	–	–	–	3	–	–	–	–
